Laboratory results taken from ChEMBL document CHEMBL3991601, “The target landscape of clinical kinase drugs” (Science, 2017).
Activity calls are given as the source filed them. Rule as the data show it, for most assays here: actives have a measured Kd and inactives only a lower limit.

Tests used:
Aurora kinase B = Aurora kinase B (Homo sapiens, UniProt Q96GD4)
[1] = biological target: T1, Membrane-associated tyrosine- and threonine-specific cdc2-inhibitory kinase (Homo sapiens, UniProt Q99640)
T1 sequence (Q99640 whole entry): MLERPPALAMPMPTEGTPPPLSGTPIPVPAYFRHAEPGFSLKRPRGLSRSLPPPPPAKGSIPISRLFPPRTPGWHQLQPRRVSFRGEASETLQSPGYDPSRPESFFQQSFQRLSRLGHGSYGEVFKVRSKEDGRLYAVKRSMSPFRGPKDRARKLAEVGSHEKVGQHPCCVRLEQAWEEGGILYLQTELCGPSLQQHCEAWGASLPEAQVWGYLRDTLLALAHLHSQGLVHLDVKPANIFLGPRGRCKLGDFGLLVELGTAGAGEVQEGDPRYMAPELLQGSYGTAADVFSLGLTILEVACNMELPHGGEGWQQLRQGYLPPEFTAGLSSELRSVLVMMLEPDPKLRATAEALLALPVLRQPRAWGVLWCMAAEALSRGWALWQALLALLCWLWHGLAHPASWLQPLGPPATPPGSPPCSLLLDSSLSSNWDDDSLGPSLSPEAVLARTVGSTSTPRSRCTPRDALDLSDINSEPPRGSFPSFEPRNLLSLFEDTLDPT

[2] = biological target: T2, Serine/threonine-protein kinase D3 (Homo sapiens, UniProt O94806)
T2 sequence (O94806 whole entry): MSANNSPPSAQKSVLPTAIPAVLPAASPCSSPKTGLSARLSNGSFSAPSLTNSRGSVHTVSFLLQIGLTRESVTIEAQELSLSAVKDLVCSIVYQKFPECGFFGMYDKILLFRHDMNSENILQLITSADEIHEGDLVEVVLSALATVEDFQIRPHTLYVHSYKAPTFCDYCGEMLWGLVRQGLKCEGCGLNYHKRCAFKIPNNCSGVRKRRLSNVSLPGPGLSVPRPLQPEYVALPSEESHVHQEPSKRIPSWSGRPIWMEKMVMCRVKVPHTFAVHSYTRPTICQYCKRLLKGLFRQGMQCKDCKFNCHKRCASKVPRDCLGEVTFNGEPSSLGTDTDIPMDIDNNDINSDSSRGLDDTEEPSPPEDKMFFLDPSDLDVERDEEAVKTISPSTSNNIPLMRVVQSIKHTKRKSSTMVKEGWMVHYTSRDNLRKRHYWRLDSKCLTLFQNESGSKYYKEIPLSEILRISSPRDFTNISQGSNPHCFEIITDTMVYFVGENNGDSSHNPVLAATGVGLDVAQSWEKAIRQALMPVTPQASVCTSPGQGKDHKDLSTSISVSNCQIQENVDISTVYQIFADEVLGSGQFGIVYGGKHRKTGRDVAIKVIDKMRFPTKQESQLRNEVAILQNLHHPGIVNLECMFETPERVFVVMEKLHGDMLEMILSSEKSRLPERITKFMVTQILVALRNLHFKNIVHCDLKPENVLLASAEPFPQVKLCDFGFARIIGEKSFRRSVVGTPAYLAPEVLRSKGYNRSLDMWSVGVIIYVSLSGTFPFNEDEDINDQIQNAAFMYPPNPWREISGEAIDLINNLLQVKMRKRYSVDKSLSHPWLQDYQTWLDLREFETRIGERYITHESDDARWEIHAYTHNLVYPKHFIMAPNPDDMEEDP

[3] = biological target: Cyclin-dependent kinase 5 (Homo sapiens, UniProt Q00535)
Chain of Cyclin-dependent kinase 5 (Q00535 whole entry): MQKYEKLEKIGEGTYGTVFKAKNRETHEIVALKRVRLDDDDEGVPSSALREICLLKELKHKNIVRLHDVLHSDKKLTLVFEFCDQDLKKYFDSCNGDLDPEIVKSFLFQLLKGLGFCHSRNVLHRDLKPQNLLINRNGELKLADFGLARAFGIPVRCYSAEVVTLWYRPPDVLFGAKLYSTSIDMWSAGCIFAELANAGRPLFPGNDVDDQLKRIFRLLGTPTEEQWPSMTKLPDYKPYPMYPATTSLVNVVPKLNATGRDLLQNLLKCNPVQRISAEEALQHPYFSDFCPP

[4] = biological target: DNA topoisomerase 2-alpha (Homo sapiens, UniProt P11388)
[5] = biological target: Cyclin-dependent kinase 7 (Homo sapiens, UniProt P50613)
Chain of Cyclin-dependent kinase 7 (P50613 whole entry): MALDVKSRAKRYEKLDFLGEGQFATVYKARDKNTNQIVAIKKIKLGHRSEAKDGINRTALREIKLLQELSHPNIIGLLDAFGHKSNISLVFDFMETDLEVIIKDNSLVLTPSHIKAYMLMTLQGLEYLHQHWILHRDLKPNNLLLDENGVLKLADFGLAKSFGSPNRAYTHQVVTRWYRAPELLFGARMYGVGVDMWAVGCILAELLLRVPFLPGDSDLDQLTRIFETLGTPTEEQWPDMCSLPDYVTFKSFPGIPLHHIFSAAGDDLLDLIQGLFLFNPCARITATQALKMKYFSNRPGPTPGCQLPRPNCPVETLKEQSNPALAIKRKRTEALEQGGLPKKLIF

[6] = biological target: T3, Very long-chain specific acyl-CoA dehydrogenase, mitochondrial (Homo sapiens, UniProt P49748)
T3 sequence (P49748 whole entry): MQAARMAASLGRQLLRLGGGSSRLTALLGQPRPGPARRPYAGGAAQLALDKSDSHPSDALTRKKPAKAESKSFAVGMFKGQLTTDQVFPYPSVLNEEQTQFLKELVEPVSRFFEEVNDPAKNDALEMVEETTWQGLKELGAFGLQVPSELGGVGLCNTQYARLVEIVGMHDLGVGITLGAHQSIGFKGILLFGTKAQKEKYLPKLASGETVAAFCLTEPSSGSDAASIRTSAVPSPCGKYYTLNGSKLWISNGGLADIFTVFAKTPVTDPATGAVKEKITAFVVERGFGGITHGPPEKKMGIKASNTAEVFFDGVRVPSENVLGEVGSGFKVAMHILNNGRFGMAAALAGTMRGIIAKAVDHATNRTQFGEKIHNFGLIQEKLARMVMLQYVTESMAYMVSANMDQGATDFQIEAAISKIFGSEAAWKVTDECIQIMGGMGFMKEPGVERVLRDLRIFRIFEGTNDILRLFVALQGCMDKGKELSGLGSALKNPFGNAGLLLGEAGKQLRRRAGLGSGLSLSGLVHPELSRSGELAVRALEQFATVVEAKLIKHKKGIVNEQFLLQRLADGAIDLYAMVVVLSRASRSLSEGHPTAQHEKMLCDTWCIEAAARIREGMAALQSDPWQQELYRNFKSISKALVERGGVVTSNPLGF

Insulin receptor = Insulin receptor (Homo sapiens, UniProt P06213)
Chain of Insulin receptor (P06213 28-758 limits assumed): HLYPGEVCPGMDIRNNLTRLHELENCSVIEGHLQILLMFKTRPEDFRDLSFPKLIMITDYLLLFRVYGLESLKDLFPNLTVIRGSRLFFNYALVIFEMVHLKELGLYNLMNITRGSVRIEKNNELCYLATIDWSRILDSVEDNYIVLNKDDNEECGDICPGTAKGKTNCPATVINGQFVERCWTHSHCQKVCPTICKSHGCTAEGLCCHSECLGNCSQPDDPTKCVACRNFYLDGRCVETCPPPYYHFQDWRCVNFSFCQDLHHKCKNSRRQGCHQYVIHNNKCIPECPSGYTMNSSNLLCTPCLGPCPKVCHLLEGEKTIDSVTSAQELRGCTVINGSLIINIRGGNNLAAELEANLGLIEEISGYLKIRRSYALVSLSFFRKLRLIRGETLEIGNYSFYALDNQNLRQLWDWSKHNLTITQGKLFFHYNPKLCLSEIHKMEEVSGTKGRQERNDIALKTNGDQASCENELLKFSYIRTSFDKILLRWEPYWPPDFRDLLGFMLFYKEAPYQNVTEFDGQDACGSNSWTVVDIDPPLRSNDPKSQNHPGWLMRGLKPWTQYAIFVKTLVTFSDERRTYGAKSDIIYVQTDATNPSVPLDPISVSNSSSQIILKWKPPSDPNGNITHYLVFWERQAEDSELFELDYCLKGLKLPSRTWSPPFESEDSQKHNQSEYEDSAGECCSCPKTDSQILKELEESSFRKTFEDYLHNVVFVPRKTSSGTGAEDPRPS
Chain of Insulin receptor (P06213 763-1382 limits assumed): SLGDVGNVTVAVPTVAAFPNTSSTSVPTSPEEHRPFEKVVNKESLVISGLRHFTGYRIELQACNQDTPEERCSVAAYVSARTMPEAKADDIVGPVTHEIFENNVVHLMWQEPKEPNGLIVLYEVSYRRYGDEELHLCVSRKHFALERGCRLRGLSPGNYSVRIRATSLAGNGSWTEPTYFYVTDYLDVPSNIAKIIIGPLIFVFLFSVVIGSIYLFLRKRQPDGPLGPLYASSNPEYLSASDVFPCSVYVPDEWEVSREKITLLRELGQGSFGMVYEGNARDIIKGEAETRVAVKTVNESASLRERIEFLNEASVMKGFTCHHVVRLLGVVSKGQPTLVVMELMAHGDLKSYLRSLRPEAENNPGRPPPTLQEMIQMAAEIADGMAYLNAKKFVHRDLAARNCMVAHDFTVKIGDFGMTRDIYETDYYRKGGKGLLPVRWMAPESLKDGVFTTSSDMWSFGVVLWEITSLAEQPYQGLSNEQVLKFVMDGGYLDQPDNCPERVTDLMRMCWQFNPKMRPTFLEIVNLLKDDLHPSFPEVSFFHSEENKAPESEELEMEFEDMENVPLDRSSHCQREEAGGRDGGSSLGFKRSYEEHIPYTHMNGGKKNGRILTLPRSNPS

[7] = biological target: Serine/threonine-protein kinase SIK3 (Homo sapiens, UniProt Q9Y2K2)
Chain of Serine/threonine-protein kinase SIK3 (Q9Y2K2 whole entry): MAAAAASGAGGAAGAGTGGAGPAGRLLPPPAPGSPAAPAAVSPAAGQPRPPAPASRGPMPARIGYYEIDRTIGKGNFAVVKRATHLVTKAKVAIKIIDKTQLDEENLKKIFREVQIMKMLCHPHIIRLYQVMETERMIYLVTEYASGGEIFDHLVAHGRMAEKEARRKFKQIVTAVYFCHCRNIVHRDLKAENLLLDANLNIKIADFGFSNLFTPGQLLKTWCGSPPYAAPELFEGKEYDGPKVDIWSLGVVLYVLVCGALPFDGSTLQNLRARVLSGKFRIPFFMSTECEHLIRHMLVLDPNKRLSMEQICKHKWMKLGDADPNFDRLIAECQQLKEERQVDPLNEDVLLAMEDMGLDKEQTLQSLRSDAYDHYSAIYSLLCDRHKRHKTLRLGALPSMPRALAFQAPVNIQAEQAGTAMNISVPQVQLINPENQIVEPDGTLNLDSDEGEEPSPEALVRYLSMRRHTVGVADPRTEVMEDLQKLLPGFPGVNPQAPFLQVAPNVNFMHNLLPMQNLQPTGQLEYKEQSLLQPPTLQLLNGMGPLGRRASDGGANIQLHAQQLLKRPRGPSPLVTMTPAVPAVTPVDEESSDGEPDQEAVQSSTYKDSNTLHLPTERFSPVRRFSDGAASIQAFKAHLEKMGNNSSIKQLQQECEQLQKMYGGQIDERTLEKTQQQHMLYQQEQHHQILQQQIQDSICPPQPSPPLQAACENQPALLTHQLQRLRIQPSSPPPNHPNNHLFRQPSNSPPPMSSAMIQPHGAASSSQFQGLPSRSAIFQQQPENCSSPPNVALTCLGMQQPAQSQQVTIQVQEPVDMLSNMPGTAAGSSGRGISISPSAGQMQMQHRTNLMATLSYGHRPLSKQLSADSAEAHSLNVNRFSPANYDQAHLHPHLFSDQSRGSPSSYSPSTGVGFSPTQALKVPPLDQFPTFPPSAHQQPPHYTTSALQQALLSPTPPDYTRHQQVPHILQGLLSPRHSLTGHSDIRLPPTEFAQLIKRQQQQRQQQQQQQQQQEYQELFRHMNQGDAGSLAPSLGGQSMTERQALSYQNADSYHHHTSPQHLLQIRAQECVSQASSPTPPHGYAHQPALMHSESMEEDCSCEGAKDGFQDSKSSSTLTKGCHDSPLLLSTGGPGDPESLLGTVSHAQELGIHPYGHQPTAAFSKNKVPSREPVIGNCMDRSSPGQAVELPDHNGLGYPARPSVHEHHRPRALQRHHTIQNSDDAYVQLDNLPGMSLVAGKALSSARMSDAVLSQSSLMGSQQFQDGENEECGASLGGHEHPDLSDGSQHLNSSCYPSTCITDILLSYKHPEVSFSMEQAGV

[8] = biological target: Serine/threonine-protein kinase 10 (Homo sapiens, UniProt O94804)
Chain of Serine/threonine-protein kinase 10 (O94804 whole entry): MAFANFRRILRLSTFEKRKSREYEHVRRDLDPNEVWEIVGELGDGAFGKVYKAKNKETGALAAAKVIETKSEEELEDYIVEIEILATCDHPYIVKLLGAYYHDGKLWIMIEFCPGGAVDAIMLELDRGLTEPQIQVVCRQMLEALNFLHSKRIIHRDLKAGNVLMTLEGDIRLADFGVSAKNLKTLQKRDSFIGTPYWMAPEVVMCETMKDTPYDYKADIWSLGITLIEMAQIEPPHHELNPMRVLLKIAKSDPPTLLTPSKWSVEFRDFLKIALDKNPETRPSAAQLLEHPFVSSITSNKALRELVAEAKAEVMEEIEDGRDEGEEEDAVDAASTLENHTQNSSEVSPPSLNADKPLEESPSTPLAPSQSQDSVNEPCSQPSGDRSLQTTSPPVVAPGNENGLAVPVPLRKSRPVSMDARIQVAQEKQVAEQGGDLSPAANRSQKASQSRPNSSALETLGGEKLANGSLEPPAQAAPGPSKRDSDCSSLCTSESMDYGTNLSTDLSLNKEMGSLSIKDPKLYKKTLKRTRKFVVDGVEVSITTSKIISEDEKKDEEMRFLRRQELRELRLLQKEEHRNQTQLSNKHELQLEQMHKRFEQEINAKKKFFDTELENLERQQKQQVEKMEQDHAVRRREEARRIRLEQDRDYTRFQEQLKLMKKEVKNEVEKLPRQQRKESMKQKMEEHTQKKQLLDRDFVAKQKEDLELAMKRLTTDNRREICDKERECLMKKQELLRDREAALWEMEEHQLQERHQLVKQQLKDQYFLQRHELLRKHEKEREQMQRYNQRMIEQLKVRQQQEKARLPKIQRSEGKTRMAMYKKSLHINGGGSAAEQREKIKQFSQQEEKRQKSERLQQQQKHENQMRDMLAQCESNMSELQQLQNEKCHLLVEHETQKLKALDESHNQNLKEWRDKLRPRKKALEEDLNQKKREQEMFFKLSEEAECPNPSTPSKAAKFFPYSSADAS

[9] = biological target: T4, Calcium/calmodulin-dependent protein kinase type IV (Homo sapiens, UniProt Q16566)
T4 sequence (Q16566 whole entry): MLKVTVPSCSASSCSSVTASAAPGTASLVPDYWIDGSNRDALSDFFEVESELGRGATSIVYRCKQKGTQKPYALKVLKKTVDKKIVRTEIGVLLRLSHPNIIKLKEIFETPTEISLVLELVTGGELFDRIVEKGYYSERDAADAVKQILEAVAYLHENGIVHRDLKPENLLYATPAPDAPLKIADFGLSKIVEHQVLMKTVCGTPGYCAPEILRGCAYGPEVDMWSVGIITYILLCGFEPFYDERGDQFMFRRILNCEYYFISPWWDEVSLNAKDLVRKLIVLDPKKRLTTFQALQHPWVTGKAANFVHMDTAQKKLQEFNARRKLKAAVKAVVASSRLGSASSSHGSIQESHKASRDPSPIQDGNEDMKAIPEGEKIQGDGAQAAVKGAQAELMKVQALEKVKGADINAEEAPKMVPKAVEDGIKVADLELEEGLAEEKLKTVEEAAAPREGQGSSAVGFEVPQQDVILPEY

[10] = biological target: Ribosomal protein S6 kinase alpha-1 (Homo sapiens, UniProt Q15418)
Also: in the data inactive means no Kd found up to 30 µM.

Chain of Aurora kinase B (Q96GD4 whole entry): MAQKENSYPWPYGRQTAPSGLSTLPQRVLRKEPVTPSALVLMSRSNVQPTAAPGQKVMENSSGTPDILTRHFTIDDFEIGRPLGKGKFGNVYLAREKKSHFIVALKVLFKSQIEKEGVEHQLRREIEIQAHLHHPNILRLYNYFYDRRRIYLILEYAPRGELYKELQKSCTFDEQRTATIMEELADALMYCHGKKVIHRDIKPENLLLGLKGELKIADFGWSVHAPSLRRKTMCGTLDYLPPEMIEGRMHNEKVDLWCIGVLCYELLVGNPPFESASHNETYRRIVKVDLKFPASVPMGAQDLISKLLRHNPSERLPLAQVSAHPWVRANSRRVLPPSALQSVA

Row | SMILES | Kd (Aurora kinase B) | Kd [1] | Kd [2] | Kd [3] | Kd [4] | Kd [5] | Kd [6] | Kd (Insulin receptor) | Kd [7] | Kd [8] | Kd [9] | Kd [10]
1 | COc1cc(N2CCC(N3CCN(C)CC3)CC2)ccc1Nc1ncnc(Nc2ccccc2S(=O)(=O)C(C)C)n1 [ASP-3026] | 0.1 µM (active) | > 30 µM (inactive) | > 30 µM (inactive) | > 30 µM (inactive) | > 30 µM (inactive) | > 30 µM (inactive) | > 30 µM (inactive) | 7.91 µM (active) | > 30 µM (inactive) | 23.7 µM (active) | > 30 µM (inactive) | > 30 µM (inactive)
2 | CNS(=O)(=O)Nc1nccc(Cc2c(C)c3ccc(Oc4ncccn4)cc3oc2=O)c1F [AVUTOMETINIB] | > 30 µM (inactive) | > 30 µM (inactive) | > 30 µM (inactive) | > 30 µM (inactive) | > 30 µM (inactive) | > 30 µM (inactive) | > 30 µM (inactive) | > 30 µM (inactive) | > 30 µM (inactive) | > 30 µM (inactive) | > 30 µM (inactive) | > 30 µM (inactive)
3 | COc1cc(CCc2cc(NC(=O)c3ccc(N4C[C@@H](C)N[C@@H](C)C4)cc3)n[nH]2)cc(OC)c1 [AZD-4547] | 1.67 µM | > 30 µM (inactive) | > 30 µM (inactive) | > 30 µM (inactive) | > 30 µM (inactive) | > 30 µM (inactive) | > 30 µM (inactive) | > 30 µM (inactive) | > 30 µM (inactive) | > 30 µM (inactive) | > 30 µM (inactive) | > 30 µM (inactive)
4 | Cc1cc([C@@H](C)Nc2ccccc2C(=O)O)c2nc(N3CCOCC3)cc(=O)n2c1 [AZD-6482] | > 30 µM (inactive) | > 30 µM (inactive) | > 30 µM (inactive) | > 30 µM (inactive) | > 30 µM (inactive) | > 30 µM (inactive) | > 30 µM (inactive) | > 30 µM (inactive) | > 30 µM (inactive) | > 30 µM (inactive) | > 30 µM (inactive) | > 30 µM (inactive)
5 | COc1ccc(-c2ccc3c(N4CCOC[C@@H]4C)nc(N4CCOC[C@@H]4C)nc3n2)cc1CO [AZD-8055] | > 30 µM (inactive) | > 30 µM (inactive) | > 30 µM (inactive) | > 30 µM (inactive) | > 30 µM (inactive) | > 30 µM (inactive) | > 30 µM (inactive) | > 30 µM (inactive) | > 30 µM (inactive) | > 30 µM (inactive) | > 30 µM (inactive) | > 30 µM (inactive)
6 | C[C@@H](Nc1cc(F)cc(F)c1)c1cc(C(=O)N(C)C)cc2c(=O)cc(N3CCOCC3)oc12 [AZD-8186] | > 30 µM (inactive) | > 30 µM (inactive) | > 30 µM (inactive) | > 30 µM (inactive) | > 30 µM (inactive) | > 30 µM (inactive) | > 30 µM (inactive) | > 30 µM (inactive) | > 30 µM (inactive) | > 30 µM (inactive) | > 30 µM (inactive) | > 30 µM (inactive)
7 | CCS(=O)(=O)N1CC(CC#N)(n2cc(-c3ncnc4[nH]ccc34)cn2)C1 [BARICITINIB] | > 30 µM (inactive) | > 30 µM (inactive) | > 30 µM (inactive) | > 30 µM (inactive) | > 30 µM (inactive) | > 30 µM (inactive) | > 30 µM (inactive) | > 30 µM (inactive) | > 30 µM (inactive) | > 30 µM (inactive) | > 30 µM (inactive) | > 30 µM (inactive)
8 | CNC(=O)c1ccc(-c2cnc3ncc(Cc4ccc5ncccc5c4)n3n2)cc1F [CAPMATINIB] | > 30 µM (inactive) | > 30 µM (inactive) | > 30 µM (inactive) | > 30 µM (inactive) | > 30 µM (inactive) | > 30 µM (inactive) | > 30 µM (inactive) | > 30 µM (inactive) | > 30 µM (inactive) | > 30 µM (inactive) | > 30 µM (inactive) | > 30 µM (inactive)
9 | O=C(c1ccc(F)c(F)c1Nc1ccc(I)cc1F)N1CC(O)([C@@H]2CCCCN2)C1 [COBIMETINIB] | > 30 µM (inactive) | > 30 µM (inactive) | > 30 µM (inactive) | > 30 µM (inactive) | > 30 µM (inactive) | > 30 µM (inactive) | > 30 µM (inactive) | > 30 µM (inactive) | > 30 µM (inactive) | > 30 µM (inactive) | > 30 µM (inactive) | > 30 µM (inactive)
10 | COC(=O)N[C@@H](C)CNc1nccc(-c2cn(C(C)C)nc2-c2cc(Cl)cc(NS(C)(=O)=O)c2F)n1 [ENCORAFENIB] | > 30 µM (inactive) | > 30 µM (inactive) | > 30 µM (inactive) | > 30 µM (inactive) | > 30 µM (inactive) | > 30 µM (inactive) | > 30 µM (inactive) | > 30 µM (inactive) | > 30 µM (inactive) | > 30 µM (inactive) | > 30 µM (inactive) | > 30 µM (inactive)
11 | CO[C@H]1C[C@@H]2CC[C@@H](C)[C@@](O)(O2)C(=O)C(=O)N2CCCC[C@H]2C(=O)O[C@H]([C@H](C)C[C@@H]2CC[C@@H](OCCO)[C@H](OC)C2)CC(=O)[C@H](C)/C=C(\C)[C@@H](O)[C@@H](OC)C(=O)[C@H](C)C[C@H](C)/C=C/C=C/C=C/1C [EVEROLIMUS] | > 30 µM (inactive) | > 30 µM (inactive) | > 30 µM (inactive) | > 30 µM (inactive) | > 30 µM (inactive) | > 30 µM (inactive) | > 30 µM (inactive) | > 30 µM (inactive) | > 30 µM (inactive) | > 30 µM (inactive) | > 30 µM (inactive) | > 30 µM (inactive)
